Measurements as given in patent US9133138B2, “Use of a quinazoline compound in preparing a medicament against flaviviridae virus” (priority 2010, dated 2015).
pIC50: −log10 of the molar value. Like-named read-outs stand apart in the source and are kept apart here.

Columns and labels:
[1] = tested on: Hepatitis C virus; assay: Huh7.5.1-HCV determination (J399EM NS5A-EGFP fluorescence); type: cell-based
Text: (§1) The Inhibitive Activity Test of the Quinazoline Compounds of the Present Invention Against Dengue Virus Serotype II and Hepatitis C Virus of Flaviviridae:
(§2) The test results of the inhibitive activity of the quinazoline compounds of the present invention against dengue virus serotype II and Hepatitis C virus of Flaviviridae are listed in table 1.
Huh7.5.1-HCV Determination:
Huh7.5.1 cell, which is currently the only cell model which can be in vitro infected by HCV viruses, can be infected by HCV viruses in vitro, and generates infective progeny viruses. J399EM is a HCV full-length mutant strain transfected by EGFP, and can generate viruses which have the same infectivity as wild-type JFH-1. Meanwhile, NS5A-EGFP fusion protein fluorescence can be observed directly in the infected cells by inserting the EGFP coding sequence into NS5A region. In this experiment, Huh7.5.1 cells were inoculated on a 96-well plate and cultured under 5% CO2 at 37° C. for 24 h. Huh7.5.1 cells were infected by J399EM virus supernatant (moi≈0.1). Meanwhile, cell control wells free from infection were included. The infected cells were washed with PBS after 8 h infection. Samples with different concentrations were added into Huh7.5.1 cells infected by J399EM viruses. Each concentration was set double wells, and control well without sample was included. The tested samples were diluted to six gradient concentrations and added respectively, and the cells were cultured for another 72 h. After the cells were treated by the samples for 72 hours, the relative intensity of fluorescence (RFU) was recorded at an excitation wavelength of 488 nm and an emission wavelength of 516 nm on a fluorescent ELISA Reader to detect the inhibition effect of the samples against HCV. The inhibition rate against HCV virus was calculated according to equation.
(§3) The inhibitive effect of the compounds on the copy number of the viruses in the culture supernatant of the BHK infected by DV2 directly reflects the inhibitive effect of the compounds against the generation of progeny viruses. In the HCV detection, the inhibitive effect of the compounds against intracellular replication of the HCV viruses can be visually determined via fluoroscopy. Meanwhile, as the only cell model which can currently be infected in vitro, Huh7.5.1 cell model infected by HCV viruses can maximumly reproduce the infection and replication process of Hepatitis C virus in vivo.

[2] = tested on: dengue virus serotype II; assay: BHK-DV2 replication determination (qPCR of viral genome copy number in culture supernatant); type: cell-based; conditions: 96 h, BHK cells infected with DV2 (MOI=0.05), 4 days culture, viral RNA copy number in supernatant by qPCR
Experimental: as §1, §2
BHK-DV2-Replication Determination:
BHK cells were inoculated on a 96-well plate. 24 hours later, DV2 viruses were added to infect for 2 h (MOI=0.05), and then viral liquid was washed away. After fresh culture medium was replaced, compounds with different concentrations were added respectively, including infection control without addition of compounds and normal MK control free from infection. After 4 days culture, the supernatant of culture fluid was sucked and centrifuged at 1000RCF for 5 min to remove the cell precipitate. Virus RNA was extracted from the supernatant by using a kit, and then reverse transcriped to be as cDNA, which was evaluated by qPCR method to determine the copy number of the virogene group in the supernatant.
as §3

[3] = Hepatitis C virus, Huh-7.5.1, 72 h, read-out: Huh7.5.1-HCV (replication) IC50

SMILES | pIC50 ([1]; Hepatitis C virus, read-out: half effective inhibitive concentration against HCV virus tested in vitro) | pIC50 [1, 3] | pIC50 [2] | pIC50 ([1]; common control compounds, HCV in vitro, read-out: half effective inhibitive concentration against HCV virus tested in vitro)
NC(=O)c1ncn([C@@H]2O[C@H](CO)[C@@H](O)[C@H]2O)n1 [Ribavirin, reference compound] | 4.70 | – | – | –
COc1cccc2nc(N)nc(N)c12 [Yhhu-0967, 5-methoxy-2,4-diaminoquinazoline] | – | 5.24 | 6.12 | –
Nc1nc(N)c2c(Oc3ccc(Cl)cc3)cccc2n1 [Yhhu-0968, 5-(4-chlorophenoxy)-2,4-diamino quinazoline] | – | – | < 5.30 | –
COc1ccccc1Oc1cccc2nc(N)nc(N)c12 [Yhhu-0969, 5-(2-methoxyphenoxy)-2,4-diaminoquinazoline] | – | – | 5.95 | –
Nc1nc(N)c2c(Oc3ccccc3)cccc2n1 [Yhhu-0970, 5-phenoxy-2,4-diaminoquinazoline] | – | 5.50 | 6.37 | –
CC(C)(C)c1ccc(Oc2cccc3nc(N)nc(N)c23)cc1 [Yhhu-1035, 5-(4-tert-butylphenoxy)-2,4-diaminoquinazoline] | – | 5.32 | 5.71 | –
CC(C)(C)Oc1cccc2nc(N)nc(N)c12 [Yhhu-1036, 5-tert-butoxy-2,4-diaminoquinazoline] | – | 5.91 | 8.05 | –
Nc1nc(N)c2c(OCCN3CCCC3)cccc2n1 [Yhhu-1041, 5-(2-(1-pyrrolidinyl)ethoxy)-2,4-diaminoquinazoline] | – | 4.91 | 5.15 | –
Nc1nc(N)c2c(OCc3ccccc3)cccc2n1 [Yhhu-1046, 5-benzyloxy-2,4-diaminoquinazoline] | – | 5.63 | 6.47 | –
Nc1nc(N)c2c(Oc3cccc(Cl)c3)cccc2n1 [Yhhu-1053, 5-(3-chlorophenoxy)-2,4-diamino quinazoline] | – | 6.10 | 6.42 | –
Nc1nc(N)c2c(OC3CCCC3)cccc2n1 [Yhhu-1056, 5-cyclopentyloxy-2,4-diaminoquinazoline] | – | 6.01 | < 4.60 | –
CCCCOc1cccc2nc(N)nc(N)c12 [Yhhu-1145, 5-n-butoxy-2,4-diaminoquinazoline] | – | 5.63 | 6.96 | –
Nc1nc(N)c2c(OC34CC5CC(CC(C5)C3)C4)cccc2n1 [Yhhu-1146, 5 (1-adamantyloxy)-2,4-diaminoquinazoline] | – | 5.29 | < 4.60 | –
Nc1nc(N)c2c(OC3CCCCC3)cccc2n1 [Yhhu-1147, 5-cyclohexyloxy-2,4-diaminoquinazoline] | – | 5.33 | 7.00 | –
Nc1nc(N)c2c(OCC(F)(F)F)cccc2n1 [Yhhu-1148, 5-(2,2,2-trifluoroethoxy-2,4-diaminoquinazoline] | – | 5.51 | 7.40 | –
CCOc1cccc2nc(N)nc(N)c12 [Yhhu-1149, 5-ethoxy-2,4-diaminoquinazoline] | – | 5.40 | 6.80 | –
Nc1ccc(Oc2cccc3nc(N)nc(N)c23)cc1 [Yhhu-1150, 5-(4-aminophenoxy)-2,4-diaminoquinazoline] | – | 5.14 | 6.31 | –
Nc1nc(N)c2c(OCc3cccnc3)cccc2n1 [Yhhu-1151, 5-(3-pyridinemethoxy)-2,4-diaminoquinazoline] | – | 5.11 | 6.37 | –
COc1ccc(Oc2cccc3nc(N)nc(N)c23)cc1 [Yhhu-1152, 5-(4-methoxyphenoxy)-2,4-diaminoquinazoline] | – | 4.61 | 5.51 | –
CCCCCCCCOc1cccc2nc(N)nc(N)c12 [Yhhu-1411, 5-n-octyloxy-2,4-diaminoquinazoline] | – | 5.80 | 6.74 | –
CC(C)CCOc1cccc2nc(N)nc(N)c12 [Yhhu-1412, 5-isoamyloxy-2,4-diaminoquinazoline] | – | 5.76 | 7.00 | –
CC(C)(C)COc1cccc2nc(N)nc(N)c12 [Yhhu-1413, 5-neooamyloxy-2,4-diaminoquinazoline] | – | 5.43 | 6.80 | –
COc1c(C)c2c(c(O)c1C/C=C(\C)CCC(=O)O)C(=O)OC2 [mycoplienolic acid, reference compound] | – | – | – | 5.90
